This passage reports MIC and melting point results from US6537986B2, “Oxazolidinone antibacterial agents having a thiocarbonyl funtionality” (Pharmacia & Upjohn Company, priority 1997, dated 2003).

Converted amounts (≈) assume the structure as drawn. Like-named read-outs stand apart in the source and are kept apart here.

The subject of series [1] is S. epidermidis (SEPI 12084). The experiment in a line: MIC, standard agar dilution method. Format: cell-based. To be noted: Staphylococcus epidermidis, Table 1, Mueller Hinton agar, incubated overnight at 35° C., read-out: Oxazolidinone MIC Values (Gram+) SEPI 12084. As to the method: (§1) MIC Test Method The in vitro MICs of test compounds were determined by a standard agar dilution method. A stock drug solution of each analog is prepared in the preferred solvent, usually DMSO:H2O (1:3). Serial 2-fold dilutions of each sample are made using 1.0 ml aliquots of sterile distilled water. To each 1.0 ml aliquot of drug is added 9 ml of molten Mueller Hinton agar medium. The drug-supplemented agar is mixed, poured into 15×100 mm petri dishes, and allowed to solidify and dry prior to inoculation. Vials of each of the test organisms are maintained frozen in the vapor phase of a liquid nitrogen freezer. Test cultures are grown overnight at 35° C. on the medium appropriate for the organism. Colonies are harvested with a sterile swab, and cell suspensions are prepared in Trypticase Soy broth (TSB) to equal the turbidity of a 0.5 McFarland standard. A 1:20 dilution of each suspension is made in TSB. […] The plates are incubated overnight at 35° C. Following incubation the Minimum Inhibitory Concentration (MIC μg/ml), the lowest concentration of drug that inhibits visible growth of the organism, is read and recorded.

In series [2] the test system is Moraxella catarrhalis (MCAT 30610). The experiment in a line: MIC, standard agar dilution method. Type of series: cell-based. To be noted: Moraxella catarrhalis, Table II, Mueller Hinton agar, incubated overnight at 35° C. Here is the method: as §1, with “A stock drug solution of each analog is prepared in the preferred solvent, usually DMSO:H2O (1:3).” left out
On the technique in general: Agar dilution tests growth on a series of plates holding different concentrations.

The subject of series [3] is S. pyogenes (SPYO 152). As to the kind of experiment: MIC, standard agar dilution method. Format: cell-based. To be noted: Streptococcus pyogenes, incubated overnight at 35° C. As to the method:
as §1, with “A stock drug solution of each analog is prepared in the preferred solvent, usually DMSO:H2O (1:3).” left out

Series [4] has as its system Haemophilus influenzae (HINF 30063). As to the kind of experiment: MIC, standard agar dilution method. Type of series: cell-based. To be noted: Haemophilus influenzae, Table II, Mueller Hinton agar, incubated overnight at 35° C. Here is the method: as §1, with “A stock drug solution of each analog is prepared in the preferred solvent, usually DMSO:H2O (1:3).” left out
In series [5] the test system is Enterococcus faecalis (EFAE 9217). The experiment in a line: MIC, standard agar dilution method. Type of series: cell-based. To be noted: incubated overnight at 35° C. Here is the method: as §1, with “A stock drug solution of each analog is prepared in the preferred solvent, usually DMSO:H2O (1:3).” left out
Series [6] has as its system E. Faecium (EFAE 12712). The experiment in a line: MIC, standard agar dilution method. Format: cell-based. To be noted: Enterococcus faecium; Table II; key: E. Faecium; agar dilution, Mueller Hinton agar, incubated overnight at 35° C.; read-out: EFAE 12712 MIC. As to the method:
as §1, with “A stock drug solution of each analog is prepared in the preferred solvent, usually DMSO:H2O (1:3).” left out

The test system of series [7] is S. epidermidis (SEPI 30593). The experiment in a line: MIC, standard agar dilution method. Type of series: cell-based. To be noted: Staphylococcus epidermidis, Table II, Mueller Hinton agar, incubated overnight at 35° C. Here is the method: as §1, with “A stock drug solution of each analog is prepared in the preferred solvent, usually DMSO:H2O (1:3).” left out
Series [8] has as its system S. aureus (SAUR 9213). As to the kind of experiment: MIC, standard agar dilution method. Type of series: cell-based. To be noted: Staphylococcus aureus, incubated overnight at 35° C. Here is the method:
as §1, with “A stock drug solution of each analog is prepared in the preferred solvent, usually DMSO:H2O (1:3).” left out

The test system of series [9] is S. pneumoniae (SPNE 9912). As to the kind of experiment: MIC, standard agar dilution method. Format: cell-based. To be noted: Streptococcus pneumoniae, incubated overnight at 35° C. As to the method: as §1, with “A stock drug solution of each analog is prepared in the preferred solvent, usually DMSO:H2O (1:3).” left out
The mark [10] stands for this setting: Table 1, Mueller Hinton agar, read-out: Oxazolidinone MIC Values (Gram+) SPYO 152.
[11] abbreviates: Table II, Mueller Hinton agar, read-out: SPYO 152 MIC.
Setting [12] is: Enterococcus faecalis, Table 1, Mueller Hinton agar, read-out: Oxazolidinone MIC Values (Gram+) EFAE 9217.
Where [13] appears, read: Table II, key: Enterococcus faecalis, Mueller Hinton agar, read-out: EFAE 9217 MIC.
The mark [14] stands for this setting: Table 1, Mueller Hinton agar, read-out: Oxazolidinone MIC Values (Gram+) SAUR 9213.
The mark [15] stands for this setting: Table II, Mueller Hinton agar, read-out: SAUR 9213 MIC.
Setting [16] is: Table 1, Mueller Hinton agar, read-out: Oxazolidinone MIC Values (Gram+) SPNE 9912.
[17] abbreviates: Table II, Mueller Hinton agar, read-out: SPNE 9912 MIC.

Consider `NC(=S)NC[C@H]1CN(c2ccc(N3CCOCC3)c(F)c2)C(=O)O1` [Example 5, (S)-N-[[3-[3-Fluoro-4-(4-morpholinyl)phenyl]-2-oxo-5-oxazolidinyl]methyl]thiourea], for which the melting point – broadly, the temperature of the solid-liquid transition – was 199 to 199.5 °C. The MIC in series [1] was found to be 0.25 µg/mL (≈ 0.705 µM). Besides, in series [2], the MIC was 2 µg/mL (≈ 5.64 µM). Besides, the MIC in [3] (setting [10]) turned out to be 0.25 µg/mL (≈ 0.705 µM). The MIC in [3] (setting [11]) came to 0.25 µg/mL (≈ 0.705 µM). This compound also registered an MIC in [4] of 4 µg/mL (≈ 11.3 µM). For the same compound, the MIC in [5] (setting [12]) amounted to 0.5 µg/mL (≈ 1.41 µM). In addition, in [5] (setting [13]), the MIC came to 0.5 µg/mL (≈ 1.41 µM). Also, the MIC in series [6] amounted to 0.5 µg/mL (≈ 1.41 µM). Further, the MIC in series [7] was determined as 0.5 µg/mL (≈ 1.41 µM). Moreover, the MIC in series [8] (setting [14]) was 1 µg/mL (≈ 2.82 µM). In addition, the MIC in series [8] (setting [15]) came to 1 µg/mL (≈ 2.82 µM). For the same compound, the MIC in series [9] (setting [16]) was below 0.125 µg/mL. In series [9] (setting [17]), the MIC was below 0.125 µg/mL.

In the case of `CC(=S)NC[C@H]1CN(c2ccc(N3CCC4(CC3)NC(=O)NC4=O)c(F)c2)C(=O)O1` [Example 3, (S)-N-[[3-[3-Fluoro-4-[2′,5′-dioxospiro[piperidine-4,4′-imidazolidine]-1-yl]phenyl]-2-oxo-5-oxazolidinyl]methyl]thioacetamide], the MIC in [1] worked out at 1 µg/mL (≈ 2.3 µM); in series [2] it was 4 µg/mL (≈ 9.19 µM); in series [3] (setting [10]) it was 0.5 µg/mL (≈ 1.15 µM); in series [3] (setting [11]), 0.5 µg/mL (≈ 1.15 µM); in series [4], 16 µg/mL (≈ 36.7 µM); in series [5] (setting [12]) it was 2 µg/mL (≈ 4.59 µM). Also, the MIC is 2 µg/mL (≈ 4.59 µM) in [5] (setting [13]); 1 µg/mL (≈ 2.3 µM) in series [6]; 1 µg/mL (≈ 2.3 µM) in series [7]; 4 µg/mL (≈ 9.19 µM) in series [8] (setting [14]); 4 µg/mL (≈ 9.19 µM) in [8] (setting [15]); 0.25 µg/mL (≈ 0.574 µM) in series [9] (setting [16]). The MIC in series [9] (setting [17]) turned out to be 0.25 µg/mL (≈ 0.574 µM).

`CC(=S)NC[C@H]1CN(c2ccc(N3CCN(c4nnc(C)s4)CC3)c(F)c2)C(=O)O1` [Example 2, (S)-N-[[3-[3-Fluoro-4-[4-(5-methyl-1,3,4-thiadiazol-2-yl)-1-piperazinyl]phenyl]-2-oxo-5-oxazolidinyl]methyl]thioacetamide]: the melting point is 222 to 223 °C. Further, the MIC in series [1] stood at 2 µg/mL (≈ 4.44 µM). Further, the MIC in [2] is above 16 µg/mL. For the same compound, the MIC in series [3] (setting [10]) worked out at 4 µg/mL (≈ 8.88 µM). Besides, the MIC in [3] (setting [11]) amounted to 4 µg/mL (≈ 8.88 µM). This compound displayed an MIC in series [4] above 16 µg/mL. Further, in series [5] (setting [12]), the MIC amounted to 4 µg/mL (≈ 8.88 µM). For the same compound, the MIC in series [5] (setting [13]) amounted to 4 µg/mL (≈ 8.88 µM). Also, the MIC in [6] is 8 µg/mL (≈ 17.8 µM). Also, in series [7], the MIC turned out to be 4 µg/mL (≈ 8.88 µM). In addition, the MIC in [8] (setting [14]) stood at 8 µg/mL (≈ 17.8 µM). For the same compound, the MIC in series [8] (setting [15]) came out at 8 µg/mL (≈ 17.8 µM). Besides, the MIC in series [9] (setting [16]) was 2 µg/mL (≈ 4.44 µM). Moreover, in [9] (setting [17]), the MIC is 2 µg/mL (≈ 4.44 µM).

As to `CC(=O)NC[C@H]1CN(c2ccc(N3CCC4(CC3)NC(=O)NC4=O)c(F)c2)C(=O)O1` [reference compound], the MIC in series [1] is 4 µg/mL (≈ 9.54 µM); in series [3] (setting [10]), 1 µg/mL (≈ 2.38 µM); in series [5] (setting [12]), 8 µg/mL (≈ 19.1 µM); in series [8] (setting [14]) it was 16 µg/mL (≈ 38.1 µM); in [9] (setting [16]) it was 0.5 µg/mL (≈ 1.19 µM).

With `CC(=O)NC[C@H]1CN(c2ccc(N3CCOCC3)c(F)c2)C(=O)O1` [reference compound], the MIC in series [1] was determined as 1 µg/mL (≈ 2.96 µM); in series [3] (setting [10]), 1 µg/mL (≈ 2.96 µM); in [5] (setting [12]) it was 2 µg/mL (≈ 5.93 µM); in [8] (setting [14]), 2 µg/mL (≈ 5.93 µM); in series [9] (setting [16]), 0.5 µg/mL (≈ 1.48 µM).

With `CC(=O)NC[C@H]1CN(c2ccc(N3CCN(c4nnc(C)s4)CC3)c(F)c2)C(=O)O1` [reference compound], the MIC was 0.25 µg/mL (≈ 0.575 µM) in series [1]; 0.25 µg/mL (≈ 0.575 µM) in series [3] (setting [10]); 1 µg/mL (≈ 2.3 µM) in series [5] (setting [12]); 0.5 µg/mL (≈ 1.15 µM) in series [8] (setting [14]); 0.13 µg/mL (≈ 0.299 µM) in series [9] (setting [16]).

The compound `CC(=S)NC[C@H]1CN(c2ccc(N3CCOCC3)c(F)c2)C(=O)O1` [Example 1, (S)-N-[[3-[3-Fluoro-4-(4-morpholinyl)phenyl]-2-oxo-5-oxazolidinyl]methyl]thioacetamide] came in with a melting point of 157.5 to 158.5 °C. In [1], the MIC amounted to 0.25 µg/mL (≈ 0.707 µM). Moreover, in series [2], the MIC is 1 µg/mL (≈ 2.83 µM). Also, the MIC in series [3] (setting [10]) turned out to be 0.13 µg/mL (≈ 0.368 µM). Moreover, the MIC in series [3] (setting [11]) is below 0.125 µg/mL. The MIC in series [4] stood at 8 µg/mL (≈ 22.6 µM). For the same compound, in series [5] (setting [12]), the MIC was found to be 0.5 µg/mL (≈ 1.41 µM). In series [5] (setting [13]), the MIC was 0.5 µg/mL (≈ 1.41 µM). For the same compound, in series [6], the MIC is 0.5 µg/mL (≈ 1.41 µM). The same compound had an MIC in [7] of 0.25 µg/mL (≈ 0.707 µM). In addition, the MIC in [8] (setting [14]) was 1 µg/mL (≈ 2.83 µM). Further, the MIC in series [8] (setting [15]) stood at 1 µg/mL (≈ 2.83 µM). Besides, in series [9] (setting [16]), the MIC is 0.13 µg/mL (≈ 0.368 µM). Further, in series [9] (setting [17]), the MIC was below 0.125 µg/mL.

The compound `CNC(=S)NC[C@H]1CN(c2ccc(N3CCOCC3)c(F)c2)C(=O)O1` [Example 6, (S)-N-[[3-[3-Fluoro-4-(4-morpholinyl)phenyl]-2-oxo-5-oxazolidinyl]methyl]-N′-methylthiourea] returned a melting point of 158 to 160 °C. Moreover, in series [1], the MIC was found to be 1 µg/mL (≈ 2.71 µM). The MIC in series [2] was found to be 8 µg/mL (≈ 21.7 µM). Besides, the MIC in series [3] (setting [10]) turned out to be 1 µg/mL (≈ 2.71 µM). The MIC in [3] (setting [11]) came to 1 µg/mL (≈ 2.71 µM). Besides, in series [4], the MIC came to 16 µg/mL (≈ 43.4 µM). In addition, in series [5] (setting [12]), the MIC was found to be 2 µg/mL (≈ 5.43 µM). The MIC in [5] (setting [13]) worked out at 2 µg/mL (≈ 5.43 µM). Also, the MIC in series [6] is 2 µg/mL (≈ 5.43 µM). In [7], this compound had an MIC of 2 µg/mL (≈ 5.43 µM). Also, in series [8] (setting [14]), the MIC came to 2 µg/mL (≈ 5.43 µM). Besides, the MIC in [8] (setting [15]) was 2 µg/mL (≈ 5.43 µM). The MIC in series [9] (setting [16]) amounted to 0.5 µg/mL (≈ 1.36 µM). The MIC in series [9] (setting [17]) came out at 0.5 µg/mL (≈ 1.36 µM).
